Test results: patent publication US11731943B2, “Therapeutic compounds, compositions and methods of use thereof” (priority 2016, dated 2023)

How the values were obtained:
[1] = system: JAK1-dependent STAT6 phosphorylation downstream of IL-13 stimulation in BEAS-2B human bronchial epithelial cells; assay: JAK1 pathway assay in BEAS-2B cells (IL-13-pSTAT6, MSD); format: cell-based; settings: Homo sapiens, BEAS-2B, BEAS-2B cells, IL-13 stimulation; read-out: IL-13 p-STAT6 BEAS-2B IC50
[2] = molecular target: isolated recombinant JAK1 kinase domain (Homo sapiens (Human), UniProt P23458); assay: JAK1 enzyme assay (Caliper LabChip, Ki); format: biochemical; settings: read-out: JAK1 Ki
isolated recombinant JAK1 kinase domain, sequence (P23458 875-1153): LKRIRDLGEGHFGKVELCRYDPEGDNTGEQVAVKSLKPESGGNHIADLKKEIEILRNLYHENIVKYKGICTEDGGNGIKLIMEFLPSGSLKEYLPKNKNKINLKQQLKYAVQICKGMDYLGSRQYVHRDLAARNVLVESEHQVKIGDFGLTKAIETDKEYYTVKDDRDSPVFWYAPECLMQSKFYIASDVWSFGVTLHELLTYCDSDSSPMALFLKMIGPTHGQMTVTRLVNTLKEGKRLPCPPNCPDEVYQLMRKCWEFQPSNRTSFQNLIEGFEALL
Procedure, shortened: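 Recombinant human JAK1 kinase domain phosphorylating an N-terminally 5-carboxyfluorescein-labelled JAK3-derived peptide, 30 min at 22 °C, stopped with EDTA (50 mM final). Phosphorylated fraction of total peptide read by Caliper LabChip mobility shift; Ki from Morrison tight-binding fit corrected for ATP competition (Ki=Ki,app/(1+[ATP]/Km,app)).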

[3] = molecular target: isolated recombinant JAK2 kinase domain (Homo sapiens (Human), UniProt O60674); assay: JAK2 enzyme assay (Caliper LabChip, Ki); format: biochemical
isolated recombinant JAK2 kinase domain, sequence (O60674 849-1124): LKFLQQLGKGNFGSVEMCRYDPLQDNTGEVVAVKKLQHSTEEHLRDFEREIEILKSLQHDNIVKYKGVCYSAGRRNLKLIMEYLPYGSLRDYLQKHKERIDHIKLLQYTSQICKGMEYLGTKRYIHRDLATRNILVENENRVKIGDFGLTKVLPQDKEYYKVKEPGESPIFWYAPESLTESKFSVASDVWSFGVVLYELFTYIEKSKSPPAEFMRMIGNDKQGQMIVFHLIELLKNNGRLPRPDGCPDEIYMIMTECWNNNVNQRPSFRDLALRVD
Procedure, shortened: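 Recombinant human JAK1 or JAK2 kinase domain phosphorylating a 5-carboxyfluorescein-labelled JAK3-derived peptide; 30 min at 22 °C, stopped with EDTA (50 mM final). Phosphorylated product measured as a fraction of total peptide by Caliper LabChip mobility shift.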

Compound | IC50 [1] [nM] | Ki [2] [nM] | Ki [3] [nM]
CC#Cc1ccc(CN2CCC(CC#N)(n3cc(C(N)=O)c(NC(=O)OC)n3)C(F)C2)cc1 (stereo not drawn) [Example 298, Methyl (4-carbamoyl-1-(4-(cyanomethyl)-3-fluoro-1-(4-(prop-1-yn-1-yl)benzyl)piperidin-4-yl)-1H-pyrazol-3-yl)carbamate] | 29 | 0.6 | 0.58
COC(=O)Nc1nn(C2(CC#N)CCN(Cc3ccc(-c4ncco4)cc3)CC2F)cc1C(N)=O (stereo not drawn) [Example 278, methyl N-[4-carbamoyl-1-[4-(cyanomethyl)-3-fluoro-1-[(4-oxazol-2-ylphenyl)methyl]-4-piperidyl]pyrazol-3-yl]carbamate] | 45 | 1.1 | 1.3
N#CCC1(n2cc(C(N)=O)c(NC(=O)C3CC3)n2)CCN(Cc2ccc(C3CCCCC3)cc2)CC1F (stereo not drawn) [Example 271, 1-[4-(cyanomethyl)-1-[(4-cyclohexylphenyl)methyl]-3-fluoro-4-piperidyl]-3-(cyclopropanecarbonylamino) pyrazole-4-carboxamide] | 83 | 2.6 | 15
N#CC[C@]1(n2cc(C(N)=O)c(NC(=O)C3CC3)n2)CC[C@@H](N2CC(O)(C(F)(F)F)C2)CC1 [Example 137, 1-[1-(cyanomethyl)-4-[3-hydroxy-3-(trifluoromethyl)azetidin-1-yl]cyclohexyl]-3-(cyclopropanecarbonylamino) pyrazole-4-carboxamide] | > 1000 | 2.7 | 21.7
N#CCC1(n2cc(C(N)=O)c(NC(=O)C3CC3)n2)CCC(Nc2ccccc2Cl)CC1 (stereo not drawn) [Example 290, 1-[4-(2-chloroanilino)-1-(cyanomethyl)cyclohexyl]-3-(cyclopropanecarbonylamino) pyrazole-4-carboxamide] | 82 | 1.1 | 13
N#CCC1(n2cc(C(N)=O)c(NC(=O)C3CC3)n2)CCN(Cc2ccc(-n3nccn3)c(O)c2)CC1 [Example 277, 1-[4-(cyanomethyl)-1-[[3-hydroxy-4-(triazol-2-yl)phenyl]methyl]-4-piperidyl]-3-(cyclopropanecarbonylamino) pyrazole-4-carboxamide] | 40 | 0.74 | 1.9
N#CCC1(n2cc(C(N)=O)c(NC(=O)C3CC3)n2)CCN(Cc2ccc(-c3cccc(F)c3)c(O)c2)CC1 [Example 139, 1-[4-(cyanomethyl)-1-[[4-(3-fluorophenyl)-3-hydroxy-phenyl]methyl]-4-piperidyl]-3-(cyclopropanecarbonylamino) pyrazole-4-carboxamide] | 104 | 0.4 | 1
COC(=O)Nc1nn(C2(CC#N)CCN(Cc3cc(O)c(-c4ccco4)cc3F)CC2F)cc1C(N)=O (stereo not drawn) [Example 238, methyl N-[4-carbamoyl-1-[4-(cyanomethyl)-3-fluoro-1-[[2-fluoro-4-(2-furyl)-5-hydroxy-phenyl]methyl]-4-piperidyl]pyrazol-3-yl]carbamate] | 18 | 0.29 | 0.35
CC(C)S(=O)(=O)Nc1cccc(CN2CCC(CC#N)(n3cc(C(N)=O)c(NC(=O)C4CC4)n3)CC2)c1 [Example 94] | > 1000 | 4.1 | 21.8
CS(=O)(=O)Nc1cccc(CN2CCC(CC#N)(n3cc(C(N)=O)c(NC(=O)C4CC4)n3)CC2)c1F [Example 78] | > 1000 | 2.9 | 4.9
CCc1cccc(-c2ccc(CN3CCC(CC#N)(n4cc(C(N)=O)c(NC(=O)C5CC5)n4)CC3)cc2)c1 [Example 154, 1-[4-(cyanomethyl)-1-[[4-(3-ethylphenyl)phenyl]methyl]-4-piperidyl]-3-(cyclopropanecarbonylamino) pyrazole-4-carboxamide] | 116 | 1.5 | 8.7
